Consider one compound from ChEMBL document CHEMBL5316291 (J Med Chem, 2023).

For orientation: AUC means the area under the concentration-time curve, a measure of exposure. A low value points to low exposure. What is called IC50 is the concentration that inhibits the measured activity by half.

Activity calls are given as the source filed them. The rule behind the calls is not given here.

Data set [1] concerns the target T1, Protein mono-ADP-ribosyltransferase TIPARP (Mus musculus) (UniProt Q8C1B2).
T1 sequence (whole entry): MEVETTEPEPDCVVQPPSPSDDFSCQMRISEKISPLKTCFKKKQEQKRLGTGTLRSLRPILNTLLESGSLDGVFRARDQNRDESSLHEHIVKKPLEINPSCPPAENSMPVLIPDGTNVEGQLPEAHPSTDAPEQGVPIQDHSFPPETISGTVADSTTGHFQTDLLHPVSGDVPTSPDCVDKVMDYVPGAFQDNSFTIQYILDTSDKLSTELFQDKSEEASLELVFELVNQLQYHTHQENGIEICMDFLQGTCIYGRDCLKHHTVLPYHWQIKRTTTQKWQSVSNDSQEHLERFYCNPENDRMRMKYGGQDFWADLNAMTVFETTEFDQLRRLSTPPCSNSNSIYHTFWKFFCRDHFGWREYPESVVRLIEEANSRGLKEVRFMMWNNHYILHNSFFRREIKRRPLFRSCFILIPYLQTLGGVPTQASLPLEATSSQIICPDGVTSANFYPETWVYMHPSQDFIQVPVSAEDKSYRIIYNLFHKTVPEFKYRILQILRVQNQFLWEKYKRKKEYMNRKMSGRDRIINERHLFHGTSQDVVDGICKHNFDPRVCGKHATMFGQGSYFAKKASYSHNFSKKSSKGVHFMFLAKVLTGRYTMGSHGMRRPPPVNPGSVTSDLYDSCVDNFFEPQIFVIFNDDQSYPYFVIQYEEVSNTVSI
The experiment in a line: Inhibition of PARP7 in mouse CT26 cells assessed as increase in […] levels at 49 to 4000 nmol/L measured after 48 hrs by RT-qPCR analysis. Type of data set: cell-based. The settings on record: dose lower […], dose upper 4000.0 nmol/L. For orientation: Quantitative PCR measures a nucleic acid by following its amplification.

Data set [2] can be described thus: AUC(0 to infinity) in ICR mouse at 10 mg/kg, po measured upto 24 hrs by LC-MS/MS analysis. The format is ADME, organism-based. More on the design: dose 10 mg/kg, time < 24 hrs, route po. The note with it: in vivo.
A short description of data set [3]: Initial plasma concentration in ICR mouse at 1 mg/kg, iv measured upto 24 hrs by LC-MS/MS analysis. Type of data set: ADME, organism-based.
The nature of data set [4]: Half life in ICR mouse at 10 mg/kg, po measured upto 24 hrs by LC-MS/MS analysis. Type of data set: ADME, organism-based. The note with it: in vivo.
A short description of data set [5]: Toxicity in BALB/c mouse implanted with mouse CT26 cells assessed as lung damage at 100 mg/kg, po measured for 14 days by hematoxylin and eosin staining based fluorescence microscopic analysis. The settings on record: in vivo, 336 h, time 14 day. The format is organism-based.
The subject of data set [6] is CT26. Nature of the data set: Antitumor activity against mouse CT26 cells implanted in immunodeficient BALB/c mouse at 100 mg/kg, po bid measured for 10 days. The format is functional, organism-based. The settings on record: time 10.0 day.
Data set [7] has as its system CT26. Nature of the data set: Antitumor activity against mouse CT26 cells implanted in BALB/c mouse assessed as tumor cell agglutination at 25 to 100 mg/kg, po bid measured for 14 days by hematoxylin and eosin staining based fluorescence microscopic analysis. The format is functional, organism-based. The note with it: dose 25-100 mg/kg, time 14.0 day.
Data set [8] has as its system CT26. The experiment in a line: Antitumor activity against mouse CT26 cells xenografted in BALB/c mouse assessed as tumor growth inhibition at 25 mg/kg, po bid measured for 14 days. The format is functional. The settings on record: CT26, 336 h, time 14 day, read-out: TGI.
Data set [9] can be described thus: Toxicity in BALB/c mouse implanted with mouse CT26 cells assessed as spleen damage at 100 mg/kg, po measured for 14 days by hematoxylin and eosin staining based fluorescence microscopic analysis. The format is organism-based. The settings on record: in vivo, 336 h, time 14 day.
The target of data set [10] is T2, Poly [ADP-ribose] polymerase tankyrase-2 (Homo sapiens, UniProt Q9H2K2).
T2 sequence (Q9H2K2 whole entry): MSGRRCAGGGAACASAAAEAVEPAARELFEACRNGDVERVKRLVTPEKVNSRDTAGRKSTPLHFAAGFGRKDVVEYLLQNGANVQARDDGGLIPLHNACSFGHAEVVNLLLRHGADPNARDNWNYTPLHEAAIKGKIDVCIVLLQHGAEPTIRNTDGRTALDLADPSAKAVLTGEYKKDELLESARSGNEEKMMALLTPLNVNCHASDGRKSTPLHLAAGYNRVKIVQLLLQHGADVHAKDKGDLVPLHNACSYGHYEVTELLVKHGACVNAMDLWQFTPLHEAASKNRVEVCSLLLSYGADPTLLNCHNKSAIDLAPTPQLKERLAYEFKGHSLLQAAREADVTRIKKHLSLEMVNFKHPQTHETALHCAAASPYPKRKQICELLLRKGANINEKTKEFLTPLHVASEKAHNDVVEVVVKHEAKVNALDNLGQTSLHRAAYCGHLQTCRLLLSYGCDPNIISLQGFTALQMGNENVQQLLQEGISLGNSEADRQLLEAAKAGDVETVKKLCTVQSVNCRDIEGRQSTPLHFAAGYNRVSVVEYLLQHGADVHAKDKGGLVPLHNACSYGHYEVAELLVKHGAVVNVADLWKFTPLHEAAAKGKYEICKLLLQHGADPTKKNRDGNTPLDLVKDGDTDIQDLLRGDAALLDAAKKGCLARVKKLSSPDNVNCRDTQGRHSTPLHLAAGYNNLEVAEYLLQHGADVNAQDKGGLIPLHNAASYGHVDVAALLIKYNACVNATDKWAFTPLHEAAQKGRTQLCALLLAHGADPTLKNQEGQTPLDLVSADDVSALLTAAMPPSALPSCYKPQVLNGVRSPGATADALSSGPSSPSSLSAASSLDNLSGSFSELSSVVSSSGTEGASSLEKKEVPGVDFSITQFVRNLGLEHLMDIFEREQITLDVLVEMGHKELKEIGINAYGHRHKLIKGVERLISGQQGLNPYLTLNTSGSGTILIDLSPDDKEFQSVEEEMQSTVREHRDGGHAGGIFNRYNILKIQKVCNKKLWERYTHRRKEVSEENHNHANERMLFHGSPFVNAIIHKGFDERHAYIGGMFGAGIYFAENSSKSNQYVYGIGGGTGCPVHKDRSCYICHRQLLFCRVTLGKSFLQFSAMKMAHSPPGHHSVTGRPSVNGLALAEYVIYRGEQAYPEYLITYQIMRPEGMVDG
Nature of the data set: Inhibition of human recombinant N-terminal GST-tagged PARP5b (667 to 1166 end residues) expressed in baculovirus infected Sf9 cells expression system incubated for 1 hr by ELISA assay.

A short description of data set [11]: Half life in ICR mouse at 1 mg/kg, iv measured upto 24 hrs by LC-MS/MS analysis. Type of data set: ADME, organism-based. The settings on record: in vivo.

In the case of `C[C@@H](CN1CC(C(=O)N2CCN(c3ncc(C(F)(F)F)cn3)CC2)C1)Nc1cn[nH]c(=O)c1C(F)(F)F`, the inhibition result in data set [1] is “Active”. The compound also yielded an AUC in data set [2] of 5663.5 ng·h/mL. The C0 at 24 h in data set [3] came out at 504 ng/mL. Further, the t1/2 was 1.74 h in data set [4] and 1.44 h in [11]. The Activity entry in data set [5] and in data set [9] was “Non-Toxic” in each case. The outcome in the data set with CT26 [6] was inactive. Further, in the data set on CT26 [7], the result was Active. Moreover, the inhibition in vivo at 25 mg/kg with CT26 [8] turned out to be 39%. Also, the concentration for half-maximal inhibition (IC50) in data set [10] is 227 nM.
